Test results from PubChem BioAssay (NCI).
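Step 1: Grow cells in 96-well plates. Step 2: Expose to compound for 48 hours at 5 concentrations. Step 3: Interpolate endpoints linearly; if unreached, use highest concentration. TGI: total growth inhibition.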

Legend:
Assay in all cases: DTP human tumour cell line panel, 48 h
[1] = system: HCT-116 colon
[2] = system: SNB-19 CNS
[3] = system: OVCAR-8 ovarian
[4] = system: UACC-257 melanoma
[5] = system: NCI-H226 lung
[6] = system: UACC-62 melanoma
[7] = system: SN12C renal
[8] = system: SNB-75 CNS
[9] = system: MCF7 breast
[10] = system: UO-31 renal
[11] = system: NCI-H522 lung
[12] = system: MOLT-4 leukemia
[13] = system: SK-MEL-28 melanoma

Row | SMILES | TGI [1] | TGI [2] | TGI [3] | TGI [4] | TGI [5] | TGI [6] | TGI [7] | TGI [8] | TGI [9] | TGI [10] | TGI [11] | TGI [12] | TGI [13]
1 | COC(=O)CC1CN(C(=O)OCc2ccccc2)C(C)(C)O1 (configuration not stated) | > 100 µM | > 100 µM | > 100 µM | > 100 µM | 22.7 µM | > 100 µM | > 100 µM | 75.8 µM | > 100 µM | > 100 µM | > 100 µM | > 100 µM | > 100 µM
2 | O=c1c2cc([N+](=O)[O-])cnc2sn1-c1ccc(Oc2ccccc2)cc1 | > 100 µM | > 100 µM | > 100 µM | > 100 µM | > 100 µM | > 100 µM | > 100 µM | > 100 µM | > 100 µM | > 100 µM | 34.1 µM | > 100 µM | > 100 µM
3 | Cc1ccc(S(=O)(=O)Oc2coc(CO)cc2=O)cc1 | 15 µM | 27.8 µM | > 50 µM | 43.4 µM | > 100 µM | 25.3 µM | 25.3 µM | 33.3 µM | 22.1 µM | 27.3 µM | 3.71 µM | > 88.5 µM | 36.6 µM
4 | CCCN(CCC)C(=S)N/N=C/c1cccc(C)n1 | 0.196 µM | > 100 µM | 0.729 µM | 0.457 µM | 0.837 µM | 9.45 µM | 3.13 µM | 0.991 µM | 0.67 µM | 12.2 µM | 2.51 µM | 0.588 µM | 91.3 µM
5 | O=c1[nH]c2nccn2c(Cl)c1Br | > 100 µM | 70.5 µM | 39.3 µM | 45.7 µM | 89.4 µM | 43.3 µM | 67.5 µM | 77.8 µM | > 100 µM | > 100 µM | 29.8 µM | 42.6 µM | 36 µM
6 | CC1=C(C(=O)OC23CC4CC(CC(C4)C2)C3)C(c2ccccc2OC(F)F)C(C(=O)OC23CC4CC(CC(C4)C2)C3)=C(C)N1 (configuration not stated) | > 100 µM | > 100 µM | > 100 µM | > 100 µM | > 100 µM | > 100 µM | > 100 µM | > 100 µM | > 100 µM | > 100 µM | > 100 µM | > 100 µM | > 100 µM
7 | CC(C)CC(=O)OC[n+]1cccc(-c2c(COC(=O)NC(C)C)c(COC(=O)NC(C)C)c3n2CCC3)c1 | > 100 µM | > 100 µM | > 100 µM | > 100 µM | > 100 µM | > 100 µM | > 100 µM | > 100 µM | > 100 µM | 91.6 µM | 49.2 µM | > 100 µM | > 100 µM
8 | CCN(CC)CCN1CCN=c2c3cc(OC)ccc3n3cnc4ccc1c2c43 | 2.84 µM | 3.04 µM | 2.26 µM | 3.74 µM | 5.3 µM | 7.3 µM | 3.38 µM | 2.27 µM | 0.847 µM | 4.42 µM | 3.86 µM | 0.999 µM | 3.51 µM
9 | CCC/C(Cl)=N\OC(=O)Nc1ccc(Br)cc1 | 26.2 µM | > 59.7 µM | 28.9 µM | 27 µM | 44 µM | 44.7 µM | 33.8 µM | 29 µM | 19.7 µM | 25.7 µM | 3.53 µM | 6.07 µM | 32.5 µM
